This note sets out measurements from patent publication US20220339127A1, “DRUGGABLE TARGET TO TREAT RETINAL DEGENERATION” (The United States of America,as represented by the …, priority 2019, published 2022).

The structures appear in SMILES notation. “Also recorded” adds a separate entry of the source.

One experiment has as its system rat RPE. Kind of experiment: Rat model of RPE dedifferentiation (micropulse laser lesion, sub-retinal injection). The experiment is classed as in vivo. The method, then: To test the in vivo activity of these drugs, a rat model of RPE dedifferentiation was developed. A 0.5 mm area of rat RPE was damaged using a micropulse laser. RPE cells in the lasered area are ablated causing the cells surrounding the laser lesion to undergo dedifferentiation due to the loss of cell-cell contacts. […] Effects of drugs on rat RPE dedifferentiation was tested by injecting either of the two drugs in the sub-retinal space of the rat eye at the time of laser injury.

The test system of experiment [1] is iRPE cells. Kind of experiment: Proteotoxic high throughput screen (LOPAC) and follow up screen: survival of A23187 treated iRPE. The experiment is classed as cell-based, human. As to conditions: for cytoprotective activity in follow up screen: seven-point dose curve, A23187 2.5, 5, 10 μM, two iRPE samples. On the procedure: 10 μM concentration of A23187 was selected for the drug screening, because it provided a bigger margin for cell death rescue. […] Drug treatment along with the stressor, 10 μM A23187 were added on to iRPE cells matured in 384-well plates and cell death was scored 48 hours later by ATP release using the CellTitrGlo assay.
To distinguish false positives from the real signal, a follow up screen on all of the 45 drugs using iRPE derived from two different iPSC lines was performed. The follow up screen was performed at three different A23187 concentrations (2.5, 5, 10 μM) and with seven different concentrations of drugs ranging from 10 nM-1 mM (FIG. 13D-F). […] Overall, the HTS screen provided two drugs for testing in the in vitro AMD model.

Experiment [2] has as its system iRPE cells. Kind of experiment: Cell area and hexagonality of CC-HS treated iRPE. The experiment is classed as cell-based, human. The note with it: co-treatment with CC-HS.
The subject of experiment [3] is iRPE cells. The experiment can be described thus: Phagocytosis of photoreceptor outer segments by CC-HS treated iRPE. It counts as cell-based, human. As to conditions: co-treatment with CC-HS. From the text:
Lastly, it was checked if the drugs rescued mature RPE phenotype and RPE functionality. TER of samples co-treated with drugs and CC-HS was 2-3× higher (p<10^−15) as compared to samples treated with vehicle+CC-HS was similar to TER values of CI-HS treated cells (FIG. 7G). Similarly, the addition of both drugs partially rescued (up to 2×; p<10^−15) the ability of the RPE cells to phagocytose photoreceptor outer segments, as compared to cells treated with CC-HS and the vehicle (FIG. 7H). […] The in vitro and in vivo data provides sufficient evidence to support the potential use of these drugs to delay AMD disease initiation and slow its progression.

In a further experiment the test system is iRPE monolayer. Kind of experiment: Transepithelial resistance (TER) of CC-HS treated iRPE monolayer. The experiment is classed as cell-based, human. The note with it: co-treatment with CC-HS.
For experiment [4], the system named is iRPE cells. Kind of experiment: Nile red staining of lipid deposits in CC-HS treated iRPE. The experiment is classed as cell-based, human. As to conditions: co-treatment with CC-HS, vs CC-HS and vehicle.
Another experiment relates to CC-HS treated iRPE cells. Kind of experiment: RNAseq of iRPE co-treated with CC-HS and drugs. The note with it: listed as L, 745,870. It counts as cell-based, human. From the text:
The key hallmark of AMD cellular phenotypes seen in cadaver eyes and observed in the in vitro model are the sub-RPE lipid and protein rich deposits, increased expression of drusen markers, and the loss of epithelial phenotype and RPE functionality. […] Similar results were obtained by RNAseq of iRPE treated with just CC-HS plus the vehicle or co-treated with CC-HS and the two drugs. Both drugs were able to suppress (4-10 fold) the expression of dedifferentiation markers in CC-HS treated iRPE cells (FIG. 13H).

For a further experiment, the system named is ATG5. The experiment can be described thus: ATG5 immunostaining in CC-HS treated iRPE. As to conditions: co-treatment with CC-HS. It counts as cell-based, human.
In a further experiment the test system is FIBULIN 3. The experiment can be described thus: FIBULIN 3 expression in CC-HS treated iRPE. The experiment is classed as cell-based, human. As to conditions: co-treatment with CC-HS, vs CC-HS and vehicle.

Source text for iRPE monolayer: To further dissect the role of C5aR1 and C3aR1 signaling in inducing AMD cellular phenotypes in iRPE cells, a depleted sera and receptor blocker strategy was employed.

As a reminder, the IC50 is the concentration that inhibits the measured activity by half. Regarding `Clc1ccc(N2CCN(Cc3c[nH]c4ncccc34)CC2)cc1` [L-745,870], in the experiment with rat RPE, the “area of RPE cells at the borders of laser lesion in rat eyes” value is listed as “reduced area” and the “hexagonality of RPE cells at the borders of laser lesion in rat eyes” value was “improved hexagonality”. In addition, in the experiment with rat RPE (sub-retinal injection at the time of laser injury), the “area of RPE cells around the laser lesion” value stood at 439.55 um2. Also, the IC50 in the experiment with iRPE cells [1] (cell survival of A23187 treated iRPE, read-out: IC50 dose from seven-point dose response curve) was 6 µM. The “cytoprotective activity in follow up screen” value in the experiment with iRPE cells [1] is “reproducible cell survival; also recorded: linear response the seven-point dose curve and reproducibility between two different iRPE samples”. In addition, the “cytoprotective activity in follow up screen” value in the experiment with iRPE cells [1] (listed as L, 745,870) is “reproducible cytoprotective activity”. In the experiment on iRPE cells [2], the average cell area was 162.24 um2, the “cell area of CC-HS treated iRPE cells” value is reported as “reduced area” and the “hexagonality of CC-HS treated iRPE cells” value is reported as “improved hexagonality”. Further, in the experiment on iRPE cells [2] (10 represents a perfect hexagon), the hexagonality score stood at 8.25. In addition, in the experiment with iRPE cells [3], the phagocytic ability result is listed as “increased”. Also, the “monolayer TER” value in the experiment on iRPE monolayer is reported as “increased monolayer TER”. Further, the “amount of Nile red positive lipid droplets” value in the experiment with iRPE cells [4] is on record as “reduced”. In addition, the “gene expression changes induced by CC-HS treatment” value with CC-HS treated iRPE cells is reported as “reversed gene expression changes induced by CC-HS treatment; also recorded: reversal of the upregulation of NF-KB pathway genes”. Also, the “reduced expression of autophagy protein, ATG5” value with ATG5 is on record as “does not lead to”. Moreover, the “expression of FIBULIN 3” value with FIBULIN 3 is recorded as “reduced”. Besides, in the experiment with FIBULIN 3 (listed as L745,870), the “expression of FIBULIN 3” value was “four-fold lower”.
